{"source": "PubChem BioAssay (NCI)", "test_in_all_cases": "NCI anticancer screen, dose series, 48 h", "key": {"NCI-H460 lung": {"tested_on": "NCI-H460 lung"}, "CAKI-1 renal": {"tested_on": "CAKI-1 renal"}, "DU-145 prostate": {"tested_on": "DU-145 prostate"}, "HCC-2998 colon": {"tested_on": "HCC-2998 colon"}, "MALME-3M melanoma": {"tested_on": "MALME-3M melanoma"}, "SR leukemia": {"tested_on": "SR leukemia"}, "SW-620 colon": {"tested_on": "SW-620 colon"}, "SF-539 CNS": {"tested_on": "SF-539 CNS"}, "T-47D breast": {"tested_on": "T-47D breast"}, "BT-549 breast": {"tested_on": "BT-549 breast"}, "HCT-15 colon": {"tested_on": "HCT-15 colon"}, "SK-MEL-2 melanoma": {"tested_on": "SK-MEL-2 melanoma"}, "MDA-MB-231 breast": {"tested_on": "MDA-MB-231 breast"}, "UACC-62 melanoma": {"tested_on": "UACC-62 melanoma"}, "HS 578T breast": {"tested_on": "HS 578T breast"}, "ACHN renal": {"tested_on": "ACHN renal"}, "RPMI-8226 leukemia": {"tested_on": "RPMI-8226 leukemia"}, "SNB-75 CNS": {"tested_on": "SNB-75 CNS"}, "NCI-H226 lung": {"tested_on": "NCI-H226 lung"}, "SF-268 CNS": {"tested_on": "SF-268 CNS"}, "TK-10 renal": {"tested_on": "TK-10 renal"}, "A498 renal": {"tested_on": "A498 renal"}, "CCRF-CEM leukemia": {"tested_on": "CCRF-CEM leukemia"}, "U251 CNS": {"tested_on": "U251 CNS"}, "A549 NSCLC": {"tested_on": "A549 NSCLC"}, "M14 melanoma": {"tested_on": "M14 melanoma"}, "COLO 205 colon": {"tested_on": "COLO 205 colon"}, "OVCAR-5 ovarian": {"tested_on": "OVCAR-5 ovarian"}, "HOP-62 NSCLC": {"tested_on": "HOP-62 NSCLC"}}, "note": "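Method: 48-hour compound exposure of cells in 96-well plates, five concentrations, linear interpolation of endpoints. GI50: concentration for 50% inhibition of growth. TGI: total growth inhibition.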"}
{"smiles": "C#Cc1ccc(NC(=O)c2ccc(/C=C/C(=O)c3nccn3C)cc2)cc1", "values": [{"measurement": "TGI", "setting": "NCI-H460 lung", "value": 1640, "unit": "nM"}, {"measurement": "GI50", "setting": "CAKI-1 renal", "value": 510, "unit": "nM"}, {"measurement": "TGI", "setting": "CAKI-1 renal", "value": 1340, "unit": "nM"}, {"measurement": "GI50", "setting": "DU-145 prostate", "value": 597, "unit": "nM"}, {"measurement": "TGI", "setting": "DU-145 prostate", "value": 1570, "unit": "nM"}, {"measurement": "GI50", "setting": "HCC-2998 colon", "value": 434, "unit": "nM"}, {"measurement": "TGI", "setting": "HCC-2998 colon", "value": 804, "unit": "nM"}, {"measurement": "GI50", "setting": "MALME-3M melanoma", "value": 486, "unit": "nM"}, {"measurement": "TGI", "setting": "MALME-3M melanoma", "value": 1190, "unit": "nM"}, {"measurement": "GI50", "setting": "SR leukemia", "value": 115, "unit": "nM"}, {"measurement": "TGI", "setting": "SR leukemia", "value": 3330, "unit": "nM"}, {"measurement": "GI50", "setting": "SW-620 colon", "value": 382, "unit": "nM"}, {"measurement": "TGI", "setting": "SW-620 colon", "value": 1010, "unit": "nM"}, {"measurement": "GI50", "setting": "SF-539 CNS", "value": 420, "unit": "nM"}, {"measurement": "TGI", "setting": "SF-539 CNS", "value": 801, "unit": "nM"}, {"measurement": "GI50", "setting": "T-47D breast", "value": 521, "unit": "nM"}, {"measurement": "TGI", "setting": "T-47D breast", "value": 2440, "unit": "nM"}, {"measurement": "GI50", "setting": "BT-549 breast", "value": 358, "unit": "nM"}, {"measurement": "TGI", "setting": "BT-549 breast", "value": 845, "unit": "nM"}, {"measurement": "GI50", "setting": "HCT-15 colon", "value": 280, "unit": "nM"}, {"measurement": "TGI", "setting": "HCT-15 colon", "value": 1600, "unit": "nM"}, {"measurement": "GI50", "setting": "SK-MEL-2 melanoma", "value": 1630, "unit": "nM"}, {"measurement": "TGI", "setting": "SK-MEL-2 melanoma", "value": 6680, "unit": "nM"}, {"measurement": "GI50", "setting": "MDA-MB-231 breast", "value": 761, "unit": "nM"}, {"measurement": "TGI", "setting": "MDA-MB-231 breast", "value": 2710, "unit": "nM"}, {"measurement": "GI50", "setting": "UACC-62 melanoma", "value": 481, "unit": "nM"}, {"measurement": "TGI", "setting": "UACC-62 melanoma", "value": 1120, "unit": "nM"}, {"measurement": "GI50", "setting": "HS 578T breast", "value": 853, "unit": "nM"}, {"measurement": "TGI", "setting": "HS 578T breast", "value": 11900, "unit": "nM"}, {"measurement": "GI50", "setting": "ACHN renal", "value": 445, "unit": "nM"}, {"measurement": "TGI", "setting": "ACHN renal", "value": 839, "unit": "nM"}, {"measurement": "GI50", "setting": "RPMI-8226 leukemia", "value": 115, "unit": "nM"}, {"measurement": "TGI", "setting": "RPMI-8226 leukemia", "value": 672, "unit": "nM"}, {"measurement": "GI50", "setting": "SNB-75 CNS", "value": 344, "unit": "nM"}, {"measurement": "TGI", "setting": "SNB-75 CNS", "value": 809, "unit": "nM"}, {"measurement": "GI50", "setting": "NCI-H226 lung", "value": 605, "unit": "nM"}, {"measurement": "TGI", "setting": "NCI-H226 lung", "value": 2000, "unit": "nM"}, {"measurement": "GI50", "setting": "SF-268 CNS", "value": 760, "unit": "nM"}, {"measurement": "TGI", "setting": "SF-268 CNS", "value": 4500, "unit": "nM"}, {"measurement": "GI50", "setting": "TK-10 renal", "value": 905, "unit": "nM"}, {"measurement": "TGI", "setting": "TK-10 renal", "value": 4660, "unit": "nM"}, {"measurement": "GI50", "setting": "A498 renal", "value": 512, "unit": "nM"}, {"measurement": "TGI", "setting": "A498 renal", "value": 1390, "unit": "nM"}, {"measurement": "GI50", "setting": "CCRF-CEM leukemia", "value": 486, "unit": "nM"}, {"measurement": "TGI", "setting": "CCRF-CEM leukemia", "value": 1590, "unit": "nM"}, {"measurement": "GI50", "setting": "U251 CNS", "value": 347, "unit": "nM"}, {"measurement": "TGI", "setting": "U251 CNS", "value": 757, "unit": "nM"}, {"measurement": "GI50", "setting": "A549 NSCLC", "value": 702, "unit": "nM"}, {"measurement": "TGI", "setting": "A549 NSCLC", "value": 5020, "unit": "nM"}, {"measurement": "GI50", "setting": "M14 melanoma", "value": 470, "unit": "nM"}, {"measurement": "TGI", "setting": "M14 melanoma", "value": 960, "unit": "nM"}, {"measurement": "GI50", "setting": "COLO 205 colon", "value": 592, "unit": "nM"}, {"measurement": "TGI", "setting": "COLO 205 colon", "value": 1360, "unit": "nM"}, {"measurement": "GI50", "setting": "OVCAR-5 ovarian", "value": 488, "unit": "nM"}, {"measurement": "TGI", "setting": "OVCAR-5 ovarian", "value": 1190, "unit": "nM"}, {"measurement": "GI50", "setting": "HOP-62 NSCLC", "value": 612, "unit": "nM"}, {"measurement": "TGI", "setting": "HOP-62 NSCLC", "value": 1650, "unit": "nM"}]}
